Measurements published in ChEMBL document CHEMBL1150124, “Steroidal and pregnane glycosides from the rhizomes of Tacca chantrieri” (J Nat Prod, 2002).
The source made the active and inactive calls. The rule behind the calls is not given here.

Test system: HL-60
Test: Cytotoxicity against human HL60 cells at 10 ug/mL
Format: functional, cell-based

SMILES | Activity
CC(=O)OC[C@H]1O[C@@H](O[C@H]2CC[C@@]3(C)C(=CC[C@H]4[C@@H]5C[C@@H]6OC(CC[C@H](C)CO[C@@H]7O[C@H](CO)[C@@H](O)[C@H](O)[C@H]7O)=C(C)[C@@H]6[C@@]5(C)CC[C@@H]43)C2)[C@H](O[C@@H]2O[C@@H](C)[C@H](O)[C@@H](O)[C@H]2O)[C@@H](O[C@@H]2O[C@@H](C)[C@H](O[C@@H]3O[C@H](CO)[C@@H](O)[C@H](O)[C@H]3O)[C@@H](O)[C@H]2O)[C@@H]1O | inactive
CC1=C(CC[C@H](C)CO[C@@H]2O[C@H](CO)[C@@H](O)[C@H](O)[C@H]2O)O[C@H]2C[C@H]3[C@@H]4CC=C5C[C@@H](O[C@@H]6O[C@H](CO)[C@@H](O)[C@H](O[C@@H]7O[C@@H](C)[C@H](O[C@@H]8O[C@H](CO)[C@@H](O)[C@H](O)[C@H]8O)[C@@H](O)[C@H]7O)[C@H]6O[C@@H]6O[C@@H](C)[C@H](O)[C@@H](O)[C@H]6O)CC[C@]5(C)[C@H]4CC[C@]3(C)[C@@H]12 | inactive
CC(=O)[C@H]1[C@@H](OC(=O)CC[C@H](C)CO[C@@H]2O[C@H](CO)[C@@H](O)[C@H](O)[C@H]2O)C[C@H]2[C@@H]3CC=C4C[C@@H](O[C@@H]5O[C@H](CO)[C@@H](O)[C@H](O[C@@H]6O[C@@H](C)[C@H](O[C@@H]7O[C@H](CO)[C@@H](O)[C@H](O)[C@H]7O)[C@@H](O)[C@H]6O)[C@H]5O[C@@H]5O[C@@H](C)[C@H](O)[C@@H](O)[C@H]5O)CC[C@]4(C)[C@H]3CC[C@@]21C | inactive
CC(=O)C1=CC[C@H]2[C@@H]3CC=C4C[C@@H](O[C@@H]5O[C@H](CO)[C@@H](O)[C@H](O[C@@H]6O[C@@H](C)[C@H](O[C@@H]7O[C@H](CO)[C@@H](O)[C@H](O)[C@H]7O)[C@@H](O)[C@H]6O)[C@H]5O[C@@H]5O[C@@H](C)[C@H](O)[C@@H](O)[C@H]5O)CC[C@]4(C)[C@H]3CC[C@]12C | inactive
CO[C@]1(CC[C@H](C)CO[C@@H]2O[C@H](CO[C@@H]3O[C@H](CO)[C@@H](O)[C@H](O)[C@H]3O)[C@@H](O)[C@H](O)[C@H]2O)O[C@H]2C[C@H]3[C@@H]4CC=C5C[C@@H](O[C@@H]6O[C@H](CO)[C@@H](O)[C@H](O[C@@H]7O[C@@H](C)[C@H](O[C@@H]8O[C@H](CO)[C@@H](O)[C@H](O)[C@H]8O)[C@@H](O)[C@H]7O)[C@H]6O[C@@H]6O[C@@H](C)[C@H](O)[C@@H](O)[C@H]6O)CC[C@]5(C)[C@H]4CC[C@]3(C)[C@H]2[C@@H]1C | inactive
CO[C@]1(CC[C@H](C)CO[C@@H]2O[C@H](CO)[C@@H](O)[C@H](O)[C@H]2O)O[C@H]2C[C@H]3[C@@H]4CC=C5C[C@@H](O[C@@H]6O[C@H](CO)[C@@H](O)[C@H](O[C@@H]7O[C@@H](C)[C@H](O[C@@H]8O[C@H](CO)[C@@H](O)[C@H](O)[C@H]8O)[C@@H](O)[C@H]7O)[C@H]6O[C@@H]6O[C@@H](C)[C@H](O)[C@@H](O)[C@H]6O)CC[C@]5(C)[C@H]4CC[C@]3(C)[C@H]2[C@@H]1C | inactive
CO[C@]1(CC[C@H](C)CO[C@@H]2O[C@H](CO)[C@@H](O)[C@H](O)[C@H]2O)O[C@H]2C[C@H]3[C@@H]4CC=C5C[C@@H](O[C@@H]6O[C@H](COC(C)=O)[C@@H](O)[C@H](O[C@@H]7O[C@@H](C)[C@H](O[C@@H]8O[C@H](CO)[C@@H](O)[C@H](O)[C@H]8O)[C@@H](O)[C@H]7O)[C@H]6O[C@@H]6O[C@@H](C)[C@H](O)[C@@H](O)[C@H]6O)CC[C@]5(C)[C@H]4CC[C@]3(C)[C@H]2[C@@H]1C | inactive
